From PMC9311865, “Covalent Allosteric Inhibitors of Akt Generated Using a Click Fragment Approach” (Chemmedchem, 2022)
“Also recorded” adds a separate entry of the source. Where two headings read alike, the source gives them in different places.

What was measured:
KU-19-19 cells = experiment: CellTiter-Glo Luminescent Cell Viability Assay, KU-19-19; type: cell-based; conditions: Homo sapiens, bladder cancer cell line, Akt1 E17K/E49K, mean ± SD, n=3
Description: The potential in vitro antiproliferative activity of the synthesised target compounds was investigated against a number of cancer cell lines by the CellTiter‐Glo® Luminescent Cell Viability Assay (from Promega Corporation, USA, catalogue number: G7570). The half‐maximal effective concentrations (EC50) of these compounds were determined against the AN3‐CA, BT‐474, KU‐19‐19, MCF‐7, T‐47D and ZR‐75‐1 cell lines originating from various tissues, i. e., breast, endometrium and bladder (Table S1). […]
The CellTiter-Glo® Luminescent Cell Viability Assay from Promega was used for the cellular assays, performed as explained by Weisner et al.7,8 Information on the cancer cell lines are given in Table S1, the control compounds used in Figure S3 and the results in Table S2.
Table S1. The cell lines used for the cellular assays, including what cancer type they are predominantly found in, and where the cell lines were acquired form.
Cell line Cancer type Acquired from AN3CA Endometrium ATCC (provided by Prof. Jan G. Hengstler at Leibniz-Institut für Arbeitsforschung Dortmund)
KU-19-19 Bladder Deutsche Sammlung von Mikroorganismen und Zellkulturen […]
BT-474 CLS Cell Lines Service (provided by Prof. Jan G. Hengstler at […] Leibniz-Institut für Arbeitsforschung Dortmund)

BT-474 cells = experiment: CellTiter-Glo Luminescent Cell Viability Assay, BT-474; type: cell-based; conditions: Homo sapiens
ZR-75-1 cells = experiment: CellTiter-Glo Luminescent Cell Viability Assay, ZR-75-1; type: cell-based; conditions: Homo sapiens
Akt2 = molecular target: T1, Akt2 (Homo sapiens, UniProt P31751); experiment: HTRF KinEASE assay, IC50 against Akt2; type: biochemical; conditions: wild-type Akt2; mean ± SD, n=3
T1 construct: purchased ProQinase
From the text: (§1) The homogeneous time‐resolved fluorescence (HTRF®) KinEASE™ assay by Cisbio was used to determine the half‐maximal inhibitory concentration (IC50) values of the synthesised compounds against Akt1, Akt2 and Akt3 (Table 1).[26]
(§2) The HTRF® KinEASE™ assay (Cisbio) was used to determine the IC 50 values of the synthesised
(§3) al. (Akt2 and Akt3).1,5 The three wild-type Akt isoforms used were acquired from ProQinase.

AN3CA cells = experiment: CellTiter-Glo Luminescent Cell Viability Assay, AN3CA; type: cell-based; conditions: Homo sapiens, AN3-CA, read-out: EC50 AN3CA
MCF-7 cells = experiment: CellTiter-Glo Luminescent Cell Viability Assay, MCF-7; type: cell-based; conditions: Homo sapiens
T47D cells = experiment: CellTiter-Glo Luminescent Cell Viability Assay, T47D; type: cell-based; conditions: Homo sapiens, breast cancer cell line, mean ± SD, n=3
Akt1 [1] = molecular target: T2, Akt1 (Homo sapiens, UniProt P31749); experiment: HTRF KinEASE assay, IC50 against Akt1
From the text: as §1, §2, §3

Akt3 = Akt3 (Homo sapiens, UniProt Q9Y243); experiment: HTRF KinEASE assay, IC50 against Akt3
From the text: as §1, §2, §3

wild-type Akt1 = molecular target: T3, wild-type Akt1 (Homo sapiens, UniProt P31749); experiment: LC-MS identification of covalent binders after co-incubation with Akt1; type: binding; conditions: co-incubation with Akt1, Figure S1
T3 construct: made in house
From the text: 2. Evaluation results … 4
4. Molecular Modelling … 57
indicated covalent binding.

Akt1 [2] = molecular target: T2, Akt1; experiment: Kinetic analysis with HTRF KinEASE (time-dependent IC50), kinetic parameters of inactivation; type: biochemical; set-up: purchased ProQinase; conditions: mean ± SD, n=3; for Ki: inhibition constant of inactivation
From the text: The kinetic parameters of inactivation, namely the inhibition constant (K I) and the rate constant of enzyme inactivation (k inact), are therefore preferentially used to describe irreversible inhibitors.[28] K I is defined as the concentration of inhibitor required for half of the maximum potential rate of covalent bond formation, while k inact is defined as the maximum potential rate of covalent bond formation.[29] The ratio of k inact over K I, k inact/K I, accounts for both the potency of the inhibitor (K I) and the maximum potential rate of covalent bond formation (k inact) and thus represents the second‐order rate constant describing the efficiency of covalent complex formation.[29] Using a protocol published by Krippendorff et al., K I and k inact can be directly estimated from time‐dependent IC50 determinations by kinetic analysis with HTRF® KinEASE™.[28]
Using a protocol published by Krippendorff et al., KI, kinact and kinact/KI could be directly
estimated from time-dependent IC50 determinations by kinetic analysis with HTRF® KinEASE™,

[3] = BT-474, breast cancer cell line, mean ± SD, n=3, read-out: EC50 BT‐474
[4] = ZR-75-1, breast cancer cell line, mean ± SD, n=3, read-out: EC50 ZR‐75‐1
[5] = endometrium cancer cell line, mean ± SD, n=3
[6] = MCF7, breast cancer cell line, mean ± SD, n=3, read-out: EC50 MCF‐7
[7] = IC50 Akt1, wild-type Akt1, mean ± SD, n=3
[8] = IC50, Akt1, repeated in Table 2 for comparison, mean ± SD, n=3

Akt3, sequence (Q9Y243 whole entry): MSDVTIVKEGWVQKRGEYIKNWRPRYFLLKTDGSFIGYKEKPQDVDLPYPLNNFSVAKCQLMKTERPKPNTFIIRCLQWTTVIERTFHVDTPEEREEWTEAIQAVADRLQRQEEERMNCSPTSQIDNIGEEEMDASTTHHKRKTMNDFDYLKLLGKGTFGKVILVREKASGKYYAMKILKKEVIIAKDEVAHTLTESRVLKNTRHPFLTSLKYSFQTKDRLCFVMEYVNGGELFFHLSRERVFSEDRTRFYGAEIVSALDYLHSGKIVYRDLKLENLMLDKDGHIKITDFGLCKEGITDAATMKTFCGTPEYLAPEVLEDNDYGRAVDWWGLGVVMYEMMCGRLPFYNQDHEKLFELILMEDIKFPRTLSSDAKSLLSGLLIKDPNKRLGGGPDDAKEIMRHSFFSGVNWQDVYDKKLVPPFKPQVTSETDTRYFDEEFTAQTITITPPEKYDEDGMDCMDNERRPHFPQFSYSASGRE
T1 sequence (P31751 whole entry): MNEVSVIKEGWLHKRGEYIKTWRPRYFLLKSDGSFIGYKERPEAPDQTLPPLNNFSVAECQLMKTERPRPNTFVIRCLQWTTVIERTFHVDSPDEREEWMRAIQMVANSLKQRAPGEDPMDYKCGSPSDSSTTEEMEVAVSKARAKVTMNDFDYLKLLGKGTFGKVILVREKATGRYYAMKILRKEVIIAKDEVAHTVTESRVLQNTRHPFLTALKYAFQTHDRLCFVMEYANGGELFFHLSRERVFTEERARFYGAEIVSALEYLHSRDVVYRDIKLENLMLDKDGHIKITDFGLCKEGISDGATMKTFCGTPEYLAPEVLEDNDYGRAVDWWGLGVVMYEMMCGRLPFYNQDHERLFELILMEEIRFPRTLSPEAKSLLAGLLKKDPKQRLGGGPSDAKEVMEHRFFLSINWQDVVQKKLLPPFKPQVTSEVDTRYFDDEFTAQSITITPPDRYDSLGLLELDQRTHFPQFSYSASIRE
T2 sequence (P31749 whole entry): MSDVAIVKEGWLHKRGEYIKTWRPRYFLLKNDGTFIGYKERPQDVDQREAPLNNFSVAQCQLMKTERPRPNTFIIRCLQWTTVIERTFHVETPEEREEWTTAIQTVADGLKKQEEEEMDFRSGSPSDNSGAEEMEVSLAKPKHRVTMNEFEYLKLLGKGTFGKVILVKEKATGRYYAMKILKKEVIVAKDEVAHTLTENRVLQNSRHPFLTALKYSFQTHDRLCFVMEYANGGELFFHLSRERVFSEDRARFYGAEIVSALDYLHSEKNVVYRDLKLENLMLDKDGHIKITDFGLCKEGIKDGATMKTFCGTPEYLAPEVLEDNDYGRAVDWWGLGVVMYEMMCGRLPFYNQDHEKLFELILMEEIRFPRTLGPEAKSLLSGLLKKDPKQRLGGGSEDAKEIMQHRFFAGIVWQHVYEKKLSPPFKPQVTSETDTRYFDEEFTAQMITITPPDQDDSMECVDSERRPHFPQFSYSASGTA
T3 sequence (P31749 whole entry): as above

Compound | EC50 (KU-19-19 cells) | EC50 (BT-474 cells; [3]) | EC50 (ZR-75-1 cells; [4]) | IC50 (Akt2) | EC50 (AN3CA cells; [5]) | EC50 (MCF-7 cells; [6]) | EC50 (T47D cells) | melting point | IC50 (Akt1 [1]; [7]) | IC50 (Akt3) | covalent binding to Akt1 (mass increase by LC-MS) (wild-type Akt1) | also measured
NC1(c2ccc(-c3nc4ccn5c(=O)[nH]nc5c4cc3-c3ccccc3)cc2)CCC1 [MK‐2206, reference compound] | 5.53 ± 0.927 µM | 1.68 ± 0.316 µM | 0.063 ± 0.021 µM | – | – | – | – | – | – | – | – | –
C=CC(=O)Nc1cccc(-c2cn(C3CCN(Cc4ccc(-c5nc6ccccn6c5-c5ccccc5C)cc4)CC3)nn2)c1 [Compound 7, N ‐{3‐[1‐(1‐{4‐[3‐(o‐Tolyl)imidazo[1,2‐a]pyridin‐2‐yl]benzyl}piperidin‐4‐yl)‐1H‐1,2,3‐triazol‐4‐yl]phenyl}acrylamide] | 7.69 ± 0.664 µM | 9.91 ± 4.14 µM | 4.19 ± 1.11 µM | > 20 µM | 5.71 ± 0.706 µM | 4.38 ± 1.59 µM | 4.86 ± 0.627 µM | 124 to 126 °C | > 20 µM | > 20 µM | – | –
C=CC(=O)Nc1cccc(-c2cn(C3CCN(Cc4ccc(-c5nc6ccc(C)cn6c5-c5ccccc5)cc4)CC3)nn2)c1 [Compound 10, N ‐[3‐(1‐{1‐[4‐(6‐Methyl‐3‐phenylimidazo[1,2‐a]pyridin‐2‐yl)benzyl]piperidin‐4‐yl}‐1H‐1,2,3‐triazol‐4‐yl)phenyl]acrylamide] | 17.3 ± 7.97 µM | 22.8 ± 3 µM | 3.32 ± 3.11 µM | > 20 µM | 5.61 ± 2.85 µM | 6.73 ± 3.48 µM | 9.18 ± 4.72 µM | 217 to 219 °C | 4.63 ± 0.244 µM | > 20 µM | partial covalent binders | –
C=CC(=O)Nc1ccc(-c2cn(C3CCN(Cc4ccc(-c5nc6ccccn6c5-c5ccccc5)cc4)CC3)nn2)cc1 [Compound 5, N ‐[4‐(1‐{1‐[4‐(3‐Phenylimidazo[1,2‐a]pyridin‐2‐yl)benzyl]piperidin‐4‐yl}‐1H‐1,2,3‐triazol‐4‐yl)phenyl]acrylamide] | 9.83 ± 1.6 µM | 6.99 ± 2.37 µM | 3.54 ± 0.44 µM | > 20 µM | 5.44 ± 1.56 µM | 3.39 ± 0.348 µM | 3.79 ± 1.94 µM | – | 2.88 ± 1.73 µM | > 20 µM | no indication of covalent binding | –
C=CC(=O)Nc1ccc2[nH]c(=O)n(C3CCN(Cc4ccc(-c5nc6cc[nH]c(=O)c6cc5-c5ccccc5)cc4)CC3)c2c1 [Compound 2, borussertib, reference compound] | 7.82 ± 3.27 µM | – | – | – | – | – | – | – | – | – | – | EC50 (BT-474 cells; BT-474, read-out: EC50 BT‐474): 0.373 ± 0.054 µM; EC50 (MCF-7 cells; MCF7, read-out: EC50 MCF‐7): 0.277 ± 0.09 µM
C=CC(=O)Nc1ccccc1-c1cn(C2CCN(Cc3ccc(-c4nc5ccccn5c4-c4ccccc4)cc3)CC2)nn1 [Compound 4, N ‐[2‐(1‐{1‐[4‐(3‐Phenylimidazo[1,2‐a]pyridin‐2‐yl)benzyl]piperidin‐4‐yl}‐1H‐1,2,3‐triazol‐4‐yl)phenyl]acrylamide] | 29.4 ± 9.59 µM | 15.4 ± 6.13 µM | 1.75 ± 0.428 µM | > 20 µM | 12.3 ± 3.48 µM | 8.55 ± 1.25 µM | 15.2 ± 3.25 µM | – | 0.925 ± 0.277 µM | > 20 µM | partial covalent binders; also recorded: partial labelling | –
C=CC(=O)Nc1ccc2[nH]c(=O)n(C3CCN(Cc4ccc(-c5nc6ccccn6c5-c5ccccc5)cc4)CC3)c2c1 [Compound 11, N ‐(2‐Oxo‐3‐{1‐[4‐(3‐phenylimidazo[1,2‐a]pyridin‐2‐yl)benzyl]piperidin‐4‐yl}‐2,3‐dihydro‐1H‐benzo[d]imidazol‐5‐yl)acrylamide] | 12.8 ± 1.61 µM | 0.971 ± 0.301 µM | 0.081 ± 0.011 µM | 2.56 ± 0.578 µM | 1.03 ± 0.21 µM | 1.1 ± 0.689 µM | 0.364 ± 0.087 µM | 221 to 223 °C | 0.034 ± 0.02 µM | > 20 µM | covalent binders | Ki (Akt1 [2]): 0.0272 ± 0.0026 µM; k inact (Akt1 [2]): 0.069 ± 0.004 min⁻¹; k inact/K I (Akt1 [2]): 43000 ± 6000 M⁻¹ s⁻¹; IC50 (Akt1 [1]; [8]): 0.0341 ± 0.0204 µM
C=CC(=O)Nc1ccccc1-c1cn(C2CCN(Cc3ccc(-c4nc5ccccn5c4-c4ccccc4C)cc3)CC2)nn1 [Compound 6, N ‐{2‐[1‐(1‐{4‐[3‐(o‐Tolyl)imidazo[1,2‐a]pyridin‐2‐yl]benzyl}piperidin‐4‐yl)‐1H‐1,2,3‐triazol‐4‐yl]phenyl}acrylamide] | 22 ± 4.98 µM | > 30 µM | 15.5 ± 1.86 µM | > 20 µM | 14.7 ± 2.35 µM | 18.2 ± 2.56 µM | > 30 µM | 128 to 130 °C | > 20 µM | > 20 µM | – | –
C=CC(=O)Nc1cc2c(cc1Cl)[nH]c(=O)n2C1CCN(Cc2ccc(-c3nc4ccccn4c3-c3ccccc3)cc2)CC1 [Compound 12, N ‐(6‐Chloro‐2‐oxo‐3‐{1‐[4‐(3‐phenylimidazo[1,2‐a]pyridin‐2‐yl)benzyl]piperidin‐4‐yl}‐2,3‐dihydro‐1H‐benzo[d]imidazol‐5‐yl)acrylamide] | 23.5 ± 6.7 µM | 3.76 ± 1.38 µM | 0.227 ± 0.057 µM | 5.59 ± 1.52 µM | 3.57 ± 1.22 µM | 4.23 ± 2.4 µM | 1.5 ± 0.903 µM | 80 to 82 °C | 0.029 ± 0.005 µM | > 20 µM | covalent binders | Ki (Akt1 [2]): 0.0247 ± 0.0018 µM; k inact (Akt1 [2]): 0.081 ± 0.008 min⁻¹; k inact/K I (Akt1 [2]): 55000 ± 9000 M⁻¹ s⁻¹; IC50 (Akt1 [1]; [8]): 0.0286 ± 0.0053 µM
C=CC(=O)Nc1cccc(-c2cn(C3CCN(Cc4ccc(-c5nc6ccccn6c5-c5cccc(C)c5)cc4)CC3)nn2)c1 [Compound 9, N ‐{3‐[1‐(1‐{4‐[3‐(m‐Tolyl)imidazo[1,2‐a]pyridin‐2‐yl]benzyl}piperidin‐4‐yl)‐1H‐1,2,3‐triazol‐4‐yl]phenyl}acrylamide] | 9.45 ± 1.04 µM | 11.2 ± 4.73 µM | 4.2 ± 0.817 µM | > 20 µM | 5.13 ± 1.28 µM | 3.61 ± 0.804 µM | 4.59 ± 1.31 µM | 130 to 132 °C | > 20 µM | > 20 µM | – | IC50 Akt1 (Akt1 [1]; wild-type Akt1, mean ± SD, n=3): inactive
C=CC(=O)Nc1ccc(-c2cn(C3CCN(Cc4ccc(-c5nc6ccccn6c5-c5ccccc5C)cc4)CC3)nn2)cc1 [Compound 8, N ‐{4‐[1‐(1‐{4‐[3‐(o‐Tolyl)imidazo[1,2‐a]pyridin‐2‐yl]benzyl}piperidin‐4‐yl)‐1H‐1,2,3‐triazol‐4‐yl]phenyl}acrylamide] | 7.63 ± 0.636 µM | 7.39 ± 2.34 µM | 5.32 ± 0.426 µM | > 20 µM | 5.87 ± 0.403 µM | 4.3 ± 1.18 µM | 4.52 ± 1.59 µM | 169 to 170 °C | > 20 µM | > 20 µM | – | –
C=CC(=O)Nc1cccc(-c2cn(C3CCN(Cc4ccc(-c5nc6cc[nH]c(=O)c6cc5-c5ccccc5)cc4)CC3)nn2)c1 [Compound 13, N ‐[3‐(1‐{1‐[4‐(5‐Oxo‐3‐phenyl‐5,6‐dihydro‐1,6‐naphthyridin‐2‐yl)benzyl]piperidin‐4‐yl}‐1H‐1,2,3‐triazol‐4‐yl)phenyl]acrylamide] | 5.65 ± 1.49 µM | 0.469 ± 0.162 µM | 0.02 ± 0.007 µM | – | 0.425 ± 0.058 µM | 0.329 ± 0.225 µM | 0.088 ± 0.031 µM | 252 to 254 °C | 0.007 ± 0.0018 µM | – | covalent binders | Ki (Akt1 [2]): 0.0105 ± 0.0008 µM; k inact (Akt1 [2]): 0.042 ± 0.012 min⁻¹; k inact/K I (Akt1 [2]): 66000 ± 15000 M⁻¹ s⁻¹; IC50 (Akt1 [1]; [8]): 0.007 ± 0.0018 µM; decrease in activity against Akt1 compared to control compound 2 (Akt1 [1]; IC50 ratio to borussertib (2)): less than 10 fold
NC1(C(=O)N[C@@H](CCO)c2ccc(Cl)cc2)CCN(c2ncnc3[nH]ccc23)CC1 [Capivasertib, reference compound] | 3.06 ± 2.33 µM | 1.6 ± 0.45 µM | – | – | – | 2.65 ± 0.555 µM | – | – | – | – | – | –
CC(C)NC[C@@H](C(=O)N1CCN(c2ncnc3c2[C@H](C)C[C@H]3O)CC1)c1ccc(Cl)cc1 [Ipatasertib, reference compound] | 4.23 ± 3.39 µM | – | – | – | – | – | 0.447 ± 0.002 µM | – | – | – | – | EC50 (AN3CA cells): 0.925 ± 0.457 µM; EC50 (BT-474 cells; BT-474, read-out: EC50 BT‐474): 2.37 ± 0.745 µM; EC50 (MCF-7 cells; MCF7, read-out: EC50 MCF‐7): 5.04 ± 1.83 µM; EC50 (ZR-75-1 cells; ZR-75-1, read-out: EC50 ZR‐75‐1): 0.219 ± 0.083 µM
